Source: patent publication US20260294964A1, “PHARMACEUTICALS CONTAINING CHELATORS WITH STRONG ZN IONS-HOLDING FEATURE FOR THE TREATMENT OF SYMPTOMS AND DISEASES CAUSED BY MICROORGANISMS/DISEASES CAUSED BY TOXINS OR NEUROTOXINS/CANCER/SEVERAL SYNDROMES” (priority 2023, published 2026)
Read-outs that look alike come from different tables or passages of the source.

Experiments:
[1] = test system: microorganisms that decompose organic matter (bacteria/fungi); experiment: Culture of microorganisms that decompose organic matter; assay type: cell-based; conditions: for concentration in culture medium at which microorganisms multiply strongly: microorganisms that decompose organic matter (bacteria/fungi)
[2] = test system: pathogenic microorganisms; experiment: Inhibition/killing of pathogenic microorganisms in water with Boraras Micros fish infected from dead fish; assay type: in vivo
Boraras Micros fish [3] = conditions: for toxicity / safety to host cells: in words, from fish experiments; for time to death of fish: 300 ppm EDTA disodium, 800 ppm EDTA Na; for death of fish: 1000 ppm Na2 EDTA / 0.5 ppm CuCl2 / [0.3 ppm CuCl2+20 ppm ZnCl2]
[4] = Metallic Cu suspension test with 1% Na ascorbate (Cu ion complex formation); assay type: physicochemical; conditions: 0.1% CuCl2, alone or with several percent of chelator; excess 1% Na ascorbate
Boraras Micros fish [5] = experiment: Protection of Boraras Micros fish from CuCl2 by chelators; assay type: in vivo; conditions: 0.4 ppm CuCl2 + a few ppm to more than 10 ppm of chelator
[6] = assay type: physicochemical, animal/human blood; conditions: for amount needed to completely dissolve Zn-blood complex suspension, compared with lysine phosphate/lysine chloride/arginine phosphate/arginine chloride: suspension with 2 ppm ZnCl2
[7] = 10 ppm Ampicillin / 20 ppm Bactrim / 100 ppm triethylenetetramine diethylenetriaminepentaacetate / 300 Mg EDTA / 600 ppm Ca EDTA / combinations as in label
[8] = 20 ppm Ampicillin / 40 ppm Bactrim

In the case of `CC1(C)S[C@@H]2[C@H](NC(=O)[C@H](N)c3ccccc3)C(=O)N2[C@H]1C(=O)O` [Ampicillin, reference compound], the “inhibition of proliferation of microorganisms” value ([1]; 20 ppm Bactrim / 10 ppm Ampicillin, first 36 hours) is reported as “slightly inhibited”, the “appearance of water after 6 days” value [2, 7] is reported as “cloudy” and the “fish outcome after 6 days” value [2, 7] is reported as “died and all of fishes died”. For the same compound, the “appearance of water after 6 days” value [2, 8] was “cloudy” and the “fish outcome after 6 days” value [2, 8] was “died and all of fishes died”.
For `[Cl][Cu][Cl]` [CuCl2], the “death of fish in CuCl2” value (Boraras Micros fish [3]; 0.4 ppm CuCl2) was “dying after a few hours” and the “appearance of metallic Cu suspension” value [4] was “metallic Cu suspension will appear”.
With `O=C([O-])CN(CCN(CC(=O)O)CC(=O)O)CC(=O)[O-].[K+].[K+]` [EDTA dipotassium] the “toxicity / safety to host cells” value (Boraras Micros fish [3]) was “toxic to host cells”.
With `O=C([O-])CN(CCN(CC(=O)[O-])CC(=O)O)CC(=O)O.[Na+].[Na+]` [EDTA disodium] the “time to death of fish” value (Boraras Micros fish [3]) was “less than 24 hours”, the death of fish (Boraras Micros fish [3]) was “died within a few hours” and the death of fish (Boraras Micros fish [3]; listed as 2 Na EDTA) was “died in a few hours”. The “toxicity / safety to host cells” value (Boraras Micros fish [3]) was “quite toxic to host cells” and the “toxicity / safety to host cells” value (Boraras Micros fish [3]; listed as disodium EDTA) was “highly toxic to healthy cells”.
In the case of `O=C([O-])c1cc(O)c(O)c(O)c1.[Na+]` [Na gallate], the “concentration in culture medium at which microorganisms multiply strongly” value (“concentration in culture medium” below) [1] is reported as 5 ppm.
With `CN(C)C1CSSC1` [Nereistoxin] the “time to death of fish, toxin alone” value (Boraras Micros fish [3]; in vivo) was 30 min.
For `N=C(N)NCCC[C@H](N)C(=O)O` [arginine, reference compound], the “appearance of metallic Cu suspension” value [4] was “metallic Cu suspension will not appear”.
For `O=C([O-])CC(O)(CC(=O)[O-])C(=O)[O-].[Na+].[Na+].[Na+]` [citrate Na, Na citrate], the “concentration in culture medium” value [1] was 80 ppm.
In the case of `NCCCC[C@H](N)C(=O)O.O=P(O)(O)O` [lysine phosphate, reference compound], the “survival of fish in CuCl2 with chelator” value (Boraras Micros fish [5]) is reported as “will not die after several weeks”.
For `NCCCC[C@H](N)C(=O)O` [lysine, reference compound], the “appearance of metallic Cu suspension” value [4] was “metallic Cu suspension will not appear”.
With `O=C([O-])CC(O)C(=O)[O-].[Na+].[Na+]` (centres unmarked) [malate Na, Na malate] the “concentration in culture medium” value [1] was 80 ppm.
In the case of `O=C([O-])CCC(=O)[O-].[Na+].[Na+]` [succinate Na, Na succinate], the “concentration in culture medium” value [1] is reported as 80 ppm.
With `NCCNCCNCCN` [triethylenetetramine, Triethylenetetramine, reference compound] the “appearance of metallic Cu suspension” value [4] was “metallic Cu suspension will not appear”.
With “Diethylenetriaminepentaacetic acid calcium [Ca DTPA]” the “toxicity / safety to host cells” value (Boraras Micros fish [3]) was “highly safe” and the “survival of fish in CuCl2 with chelator” value (Boraras Micros fish [5]) was “will not die after several weeks”.
In the case of “Diethylenetriaminepentaacetic acid magnesium [Mg DTPA]”, the “appearance of metallic Cu suspension” value [4] is reported as “metallic Cu suspension will not appear” and the “survival of fish in CuCl2 with chelator” value (Boraras Micros fish [5]) is reported as “will not die after several weeks”.
With EDTA Na the “time to death of fish” value (Boraras Micros fish [3]) was at most 24 h.
In the case of Na tannate Na, the “concentration in culture medium” value [1] is reported as 30 ppm.
For arginine ascorbate, the “volume that completely dissolves Zn-blood complex suspension” value ([6]; concentration of solution not given, suspension from 1.4 ml 0.1% ZnCl2 in 100 ml 0.9% NaCl with 1% blood) was 0.7 mL.
For “pentaethylenehexamine diethylenetriaminepentaacetate”, the “amount needed to completely dissolve Zn-blood complex suspension, compared with lysine phosphate/lysine chloride/arginine phosphate/arginine chloride” value [6] was “tens to hundreds of times lower”.
In the case of “tetraethylenepentamine diethylenetriaminepentaacetate”, the “amount needed to completely dissolve Zn-blood complex suspension, compared with lysine phosphate/lysine chloride/arginine phosphate/arginine chloride” value [6] is reported as “tens to hundreds of times lower”.
In the case of triethylenetetramine gluconate, the “amount needed to completely dissolve Zn-blood complex suspension, compared with lysine phosphate/lysine chloride/arginine phosphate/arginine chloride” value [6] is reported as “tens to hundreds of times lower”.
